Legend:
[1] = species on record: Homo sapiens; experiment: Antioxidant activity in human M17 cell lysate assessed as trolox equivalents of ABTS radical scavenging activity incubated up to 10 mins; type: functional, subcellular
[2] = molecular target: Sodium-dependent serotonin transporter (Rattus norvegicus, UniProt P31652); experiment: Inhibition of rat synaptosome SERT
[3] = molecular target: Lipoxygenase (Glycine max, UniProt Q39829); experiment: Inhibition of soya bean LOX assessed as reduction in formation of 13-hydroperoxylinoleic acid using sodium linoleate as substrate
[4] = molecular target: Histamine H2 receptor (Cavia porcellus) (UniProt P47747); experiment: Binding affinity to histamine H2 receptor in guinea pig right atrium
Chain of Histamine H2 receptor (Cavia porcellus) (P47747 whole entry): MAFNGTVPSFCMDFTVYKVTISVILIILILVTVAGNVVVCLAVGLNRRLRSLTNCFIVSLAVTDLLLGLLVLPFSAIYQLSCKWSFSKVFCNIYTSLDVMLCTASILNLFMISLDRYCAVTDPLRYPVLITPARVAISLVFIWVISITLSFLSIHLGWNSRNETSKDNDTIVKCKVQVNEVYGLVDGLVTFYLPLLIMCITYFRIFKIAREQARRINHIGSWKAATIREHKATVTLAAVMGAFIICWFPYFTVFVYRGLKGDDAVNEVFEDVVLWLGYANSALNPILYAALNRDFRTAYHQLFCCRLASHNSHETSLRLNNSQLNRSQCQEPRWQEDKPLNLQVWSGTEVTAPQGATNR

[5] = molecular target: Histamine H3 receptor (Homo sapiens, UniProt Q9Y5N1); experiment: Antagonist activity at human histamine H3 receptor stably expressed in HEK293 cells assessed as cAMP accumulation incubated for 60 mins by Eu-cAMP tracer based TR-FRET assay; type: functional, cell-based
Chain of Histamine H3 receptor (Q9Y5N1 whole entry): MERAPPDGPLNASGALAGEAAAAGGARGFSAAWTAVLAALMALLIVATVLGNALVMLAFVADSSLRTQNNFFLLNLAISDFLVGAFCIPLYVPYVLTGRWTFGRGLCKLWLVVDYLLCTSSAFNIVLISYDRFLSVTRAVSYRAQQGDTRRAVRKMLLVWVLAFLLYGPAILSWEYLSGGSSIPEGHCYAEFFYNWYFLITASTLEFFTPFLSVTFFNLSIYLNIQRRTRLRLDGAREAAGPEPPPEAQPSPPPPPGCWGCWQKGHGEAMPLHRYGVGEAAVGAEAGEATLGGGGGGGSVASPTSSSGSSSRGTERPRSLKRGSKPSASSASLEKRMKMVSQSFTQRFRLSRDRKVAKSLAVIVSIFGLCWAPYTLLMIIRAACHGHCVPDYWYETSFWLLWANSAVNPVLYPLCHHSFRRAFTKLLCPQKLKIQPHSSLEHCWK

[6] = molecular target: Amyloid-beta precursor protein (Homo sapiens, UniProt P05067); experiment: Inhibition of self-induced aggregation of amyloid beta (1 to 42) (unknown origin) incubated for 24 hrs by TEM analysis
Chain of Amyloid-beta precursor protein (P05067 whole entry): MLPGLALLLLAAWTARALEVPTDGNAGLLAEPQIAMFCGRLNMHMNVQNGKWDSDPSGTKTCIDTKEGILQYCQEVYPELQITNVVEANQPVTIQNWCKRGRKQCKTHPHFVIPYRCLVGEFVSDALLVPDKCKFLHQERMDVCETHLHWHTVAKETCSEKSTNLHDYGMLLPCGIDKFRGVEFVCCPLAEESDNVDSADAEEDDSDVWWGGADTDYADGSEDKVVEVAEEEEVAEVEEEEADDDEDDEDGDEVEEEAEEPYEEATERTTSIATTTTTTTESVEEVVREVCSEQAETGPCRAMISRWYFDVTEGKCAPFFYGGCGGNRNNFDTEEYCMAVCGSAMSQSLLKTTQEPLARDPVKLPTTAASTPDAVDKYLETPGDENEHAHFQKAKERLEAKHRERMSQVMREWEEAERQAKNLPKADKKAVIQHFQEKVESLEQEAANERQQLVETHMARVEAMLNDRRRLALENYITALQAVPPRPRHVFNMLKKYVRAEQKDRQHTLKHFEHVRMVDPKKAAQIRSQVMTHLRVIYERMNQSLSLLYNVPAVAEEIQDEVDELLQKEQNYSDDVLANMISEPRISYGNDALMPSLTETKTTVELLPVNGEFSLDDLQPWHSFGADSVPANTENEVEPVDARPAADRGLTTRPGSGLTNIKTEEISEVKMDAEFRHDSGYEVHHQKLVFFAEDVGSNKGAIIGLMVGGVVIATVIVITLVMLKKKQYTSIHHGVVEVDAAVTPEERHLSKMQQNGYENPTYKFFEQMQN

[7] = Inhibition of ROS generation in human MC65 cells assessed as reduction in tetracycline removal-induced ROS level incubated for 48 hrs by DCFH-DA staining based flow cytometric analysis; type: functional, cell-based; details: MC65, 48 h
[8] = Neuroprotective activity against tetracycline removal-induced cytotoxicity in human MC65 cells assessed as increase in cell viability incubated for 72 hrs by MTT assay; type: functional, cell-based; details: MC65, 72 h
[9] = molecular target: T1, Acetylcholinesterase (Mus musculus, UniProt P21836); experiment: Inhibition of mouse brain AChE
T1 sequence (P21836 whole entry): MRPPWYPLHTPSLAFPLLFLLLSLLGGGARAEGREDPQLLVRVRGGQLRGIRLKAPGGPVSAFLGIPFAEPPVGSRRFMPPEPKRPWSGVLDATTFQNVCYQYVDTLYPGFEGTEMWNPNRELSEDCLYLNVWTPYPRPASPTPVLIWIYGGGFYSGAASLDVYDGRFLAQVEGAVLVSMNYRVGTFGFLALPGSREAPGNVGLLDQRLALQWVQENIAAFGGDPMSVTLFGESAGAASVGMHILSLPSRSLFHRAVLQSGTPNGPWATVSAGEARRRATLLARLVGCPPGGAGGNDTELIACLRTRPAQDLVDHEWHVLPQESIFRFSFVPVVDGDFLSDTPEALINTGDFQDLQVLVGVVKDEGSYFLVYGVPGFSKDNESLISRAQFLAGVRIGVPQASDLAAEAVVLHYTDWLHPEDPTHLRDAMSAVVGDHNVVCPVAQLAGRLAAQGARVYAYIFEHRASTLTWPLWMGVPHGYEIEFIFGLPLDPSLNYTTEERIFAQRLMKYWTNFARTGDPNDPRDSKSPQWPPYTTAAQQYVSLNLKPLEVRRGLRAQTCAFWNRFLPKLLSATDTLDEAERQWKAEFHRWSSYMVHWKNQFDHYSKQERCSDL

[10] = molecular target: Substance-P receptor (Homo sapiens, UniProt P25103); experiment: Displacement of [3H]Sar SP from human NK1 receptor expressed in CHO cells membranes; type: cell membranes
Chain of Substance-P receptor (P25103 whole entry): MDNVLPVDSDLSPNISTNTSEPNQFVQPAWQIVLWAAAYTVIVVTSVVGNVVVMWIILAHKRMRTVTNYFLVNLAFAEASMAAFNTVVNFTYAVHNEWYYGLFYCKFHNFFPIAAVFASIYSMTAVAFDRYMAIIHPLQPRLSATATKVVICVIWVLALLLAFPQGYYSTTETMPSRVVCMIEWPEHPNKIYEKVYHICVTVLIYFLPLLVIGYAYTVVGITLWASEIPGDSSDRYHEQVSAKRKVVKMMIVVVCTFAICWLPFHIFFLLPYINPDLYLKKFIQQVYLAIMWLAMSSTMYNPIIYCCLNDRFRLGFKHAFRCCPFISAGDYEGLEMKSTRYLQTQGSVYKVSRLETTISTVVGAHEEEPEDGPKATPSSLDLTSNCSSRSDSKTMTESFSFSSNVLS

[11] = molecular target: T2, Substance-K receptor (Homo sapiens, UniProt P21452); experiment: Displacement of [3H]NKA from human NK2 receptor expressed in CHO cells membranes; type: cell membranes
T2 sequence (P21452 whole entry): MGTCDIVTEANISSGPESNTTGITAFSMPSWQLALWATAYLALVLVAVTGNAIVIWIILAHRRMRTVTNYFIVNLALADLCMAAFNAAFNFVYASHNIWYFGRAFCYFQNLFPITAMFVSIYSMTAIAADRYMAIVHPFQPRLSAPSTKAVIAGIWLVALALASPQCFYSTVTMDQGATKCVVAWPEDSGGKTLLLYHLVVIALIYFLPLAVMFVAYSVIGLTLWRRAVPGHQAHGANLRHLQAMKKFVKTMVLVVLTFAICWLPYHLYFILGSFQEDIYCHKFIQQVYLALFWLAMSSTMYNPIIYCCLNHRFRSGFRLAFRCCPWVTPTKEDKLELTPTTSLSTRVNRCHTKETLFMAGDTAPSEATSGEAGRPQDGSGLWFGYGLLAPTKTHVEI

[12] = molecular target: T3, Neuromedin-K receptor (Homo sapiens, UniProt P29371); experiment: Displacement of [125I][MePhe]NKB from human NK3 receptor expressed in CHO cells membranes; type: cell membranes
T3 sequence (P29371 whole entry): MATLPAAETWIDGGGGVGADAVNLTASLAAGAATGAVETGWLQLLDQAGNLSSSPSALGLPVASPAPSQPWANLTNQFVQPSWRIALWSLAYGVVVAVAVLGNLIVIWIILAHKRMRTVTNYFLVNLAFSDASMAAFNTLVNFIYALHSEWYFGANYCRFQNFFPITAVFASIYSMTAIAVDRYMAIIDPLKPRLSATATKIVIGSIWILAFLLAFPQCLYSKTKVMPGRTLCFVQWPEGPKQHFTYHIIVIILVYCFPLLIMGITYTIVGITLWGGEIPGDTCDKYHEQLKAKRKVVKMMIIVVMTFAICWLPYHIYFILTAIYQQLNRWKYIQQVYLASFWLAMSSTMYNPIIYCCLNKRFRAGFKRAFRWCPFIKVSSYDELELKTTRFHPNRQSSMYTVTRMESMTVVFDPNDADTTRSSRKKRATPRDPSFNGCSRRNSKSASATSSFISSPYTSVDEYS

[13] = test system: Rattus norvegicus; experiment: Antinociceptive activity in Wistar rat model of acetic-acid induced nociception pain assessed as reduction in writhes by measuring reduction in hind limb extension at 0.01 mmol/0.1kg, ip pretreated for 30 min followed by acetic-acid treatment and measured every 5 mins for 30 mins relative to control; type: functional; set-up: scale not given: the % may be the effect or the level left
[14] = molecular target: Histamine H1 receptor (Cavia porcellus) (UniProt P31389); experiment: Binding affinity to histamine H1 receptor in guinea pig ileum incubated up to 20 mins; type: tissue-based
Chain of Histamine H1 receptor (Cavia porcellus) (P31389 whole entry): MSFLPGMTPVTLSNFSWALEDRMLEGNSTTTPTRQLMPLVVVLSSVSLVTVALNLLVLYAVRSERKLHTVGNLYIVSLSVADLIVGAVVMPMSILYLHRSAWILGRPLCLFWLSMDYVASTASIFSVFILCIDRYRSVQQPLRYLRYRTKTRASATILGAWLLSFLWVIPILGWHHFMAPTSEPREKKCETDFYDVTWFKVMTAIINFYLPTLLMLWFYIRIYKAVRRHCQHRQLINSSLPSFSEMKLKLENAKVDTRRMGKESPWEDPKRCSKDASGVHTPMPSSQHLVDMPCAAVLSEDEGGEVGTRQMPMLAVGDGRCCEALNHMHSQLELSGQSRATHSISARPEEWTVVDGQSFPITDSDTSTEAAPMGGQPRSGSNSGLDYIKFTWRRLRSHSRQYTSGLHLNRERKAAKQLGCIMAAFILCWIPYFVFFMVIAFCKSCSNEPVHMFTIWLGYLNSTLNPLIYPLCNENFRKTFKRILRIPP

Chain of Sodium-dependent serotonin transporter (P31652 whole entry): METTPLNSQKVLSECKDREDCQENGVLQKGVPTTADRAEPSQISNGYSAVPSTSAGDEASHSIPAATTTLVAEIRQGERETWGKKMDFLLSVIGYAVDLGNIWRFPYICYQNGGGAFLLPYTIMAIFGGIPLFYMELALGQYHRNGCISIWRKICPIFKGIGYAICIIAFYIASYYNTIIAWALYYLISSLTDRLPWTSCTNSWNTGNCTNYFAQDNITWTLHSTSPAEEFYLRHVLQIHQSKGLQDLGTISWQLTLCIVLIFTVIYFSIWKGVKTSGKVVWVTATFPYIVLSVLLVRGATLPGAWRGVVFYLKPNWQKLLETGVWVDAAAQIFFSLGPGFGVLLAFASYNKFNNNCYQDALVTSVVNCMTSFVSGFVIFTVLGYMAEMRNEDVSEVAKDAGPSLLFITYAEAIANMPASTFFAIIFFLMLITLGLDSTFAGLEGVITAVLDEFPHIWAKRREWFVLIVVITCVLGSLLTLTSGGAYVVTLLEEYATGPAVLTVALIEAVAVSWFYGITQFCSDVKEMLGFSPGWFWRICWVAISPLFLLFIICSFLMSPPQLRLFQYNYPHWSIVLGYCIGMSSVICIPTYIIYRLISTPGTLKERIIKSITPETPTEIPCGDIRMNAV

CN(C)c1ccc(O)c(CNc2cccc3ccc(CO)nc23)c1
Activity [1]: 1.41

CCN(C)C(=O)Oc1cccc([C@H](C)N(C)C)c1 [RIVASTIGMINE]
IC50 [2]: > 1000 nM

O=C(O)/C=C/c1cccc(Oc2ccccc2)c1
IC50 [3]: 89000 nM

CN(CCCNC(=O)NCCCOc1ccc(CN2CCCCC2)cc1)CCC(c1ccc(F)cc1)c1ccccn1 (stereo not drawn)
pKb [4]: 6.68

CCN(CC)CCCOc1ccc(-n2ccc(=O)c(O)c2C)cc1
IC50 [5]: 12.8 nM
IC50 [6]: 17200 nM

Cc1c(C)c2c(c(C)c1O)CCC(C)(C(=O)O)O2 (stereo not drawn)
Activity [1]: 1

COc1ccc2[nH]cc(CCNC(=O)CC(=O)CCc3ccc(O)cc3)c2c1
IC50 [7]: 68 nM
EC50 [8]: 27.6 nM

CNCCC(Oc1ccc(C(F)(F)F)cc1)c1ccccc1 (stereo not drawn) [FLUOXETINE]
IC50 [9]: > 10000 nM

CNC(=O)C[C@H]1CCCN(C2CCN(CC[C@@H](/C(CN(C)C(=O)c3cc(Cl)cc(Cl)c3)=N/OC)c3ccc(Cl)c(Cl)c3)CC2)C1
Ki [10]: 1.3 nM
Ki [11]: 0.4 nM
Ki [12]: 0.3 nM

CC(=O)Nc1ccc(O)cc1 [ACETAMINOPHEN]
Activity [13]: 66%

COc1ccc(CN(CCN(C)CCCCCCN/C(=N/C#N)NCCCOc2cccc(CN3CCCCC3)c2)c2ccccn2)cc1
pKb [14]: 8.42
pKb [4]: 6.43

CC(=O)Nc1cccc(OC(=O)/C=C/c2cccc(Oc3ccccc3)c2)c1
IC50 [3]: 340 nM
Activity [13]: 91 - 98.1%
